Laboratory results as given in patent publication US11116760B2 (Gilead Sciences, Inc., priority 2018, dated 2021).

Biological target: α4β7 integrin (Homo sapiens (Human), UniProt P13612+P26010)
Assay: α4β7 Integrin Cell Capture Assay
Format: cell-based
[1] = Table 1, capture of α4β7 expressing RPM18866 cells on MadCAM-1 extracellular domain-coated plate
[2] = Table 2, capture of α4β7 expressing RPM18866 cells on MadCAM-1 extracellular domain-coated plate
[3] = RPMI8866 cells captured on MadCAM-1 extracellular domain-coated plate

Sequence of α4β7 integrin (P13612 34-1032): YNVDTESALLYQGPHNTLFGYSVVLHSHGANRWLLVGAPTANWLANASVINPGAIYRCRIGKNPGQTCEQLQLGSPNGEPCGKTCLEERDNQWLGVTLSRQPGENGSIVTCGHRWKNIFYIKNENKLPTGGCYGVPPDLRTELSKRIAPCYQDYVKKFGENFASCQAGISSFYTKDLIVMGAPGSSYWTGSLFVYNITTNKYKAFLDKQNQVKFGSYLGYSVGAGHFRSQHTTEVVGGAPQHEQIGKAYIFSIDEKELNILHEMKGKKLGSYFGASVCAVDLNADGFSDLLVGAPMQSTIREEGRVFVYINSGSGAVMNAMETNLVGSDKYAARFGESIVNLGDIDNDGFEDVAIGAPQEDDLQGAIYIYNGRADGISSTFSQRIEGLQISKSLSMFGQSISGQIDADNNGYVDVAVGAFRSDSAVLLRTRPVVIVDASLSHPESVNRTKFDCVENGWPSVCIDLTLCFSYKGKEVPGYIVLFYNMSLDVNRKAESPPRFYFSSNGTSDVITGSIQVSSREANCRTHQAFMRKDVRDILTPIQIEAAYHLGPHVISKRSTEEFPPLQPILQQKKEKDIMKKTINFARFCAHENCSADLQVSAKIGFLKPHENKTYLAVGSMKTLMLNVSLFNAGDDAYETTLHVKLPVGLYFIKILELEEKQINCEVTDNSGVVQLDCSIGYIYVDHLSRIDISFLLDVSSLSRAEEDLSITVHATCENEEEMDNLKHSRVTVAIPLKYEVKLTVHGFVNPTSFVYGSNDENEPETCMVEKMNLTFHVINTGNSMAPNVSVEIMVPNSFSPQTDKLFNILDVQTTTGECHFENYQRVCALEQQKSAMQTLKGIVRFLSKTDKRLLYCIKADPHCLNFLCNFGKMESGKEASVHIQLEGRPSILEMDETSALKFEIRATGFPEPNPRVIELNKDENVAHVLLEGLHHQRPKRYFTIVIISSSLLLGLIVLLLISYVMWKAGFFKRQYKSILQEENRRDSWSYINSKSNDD
Sequence of α4β7 integrin (P26010 20-798): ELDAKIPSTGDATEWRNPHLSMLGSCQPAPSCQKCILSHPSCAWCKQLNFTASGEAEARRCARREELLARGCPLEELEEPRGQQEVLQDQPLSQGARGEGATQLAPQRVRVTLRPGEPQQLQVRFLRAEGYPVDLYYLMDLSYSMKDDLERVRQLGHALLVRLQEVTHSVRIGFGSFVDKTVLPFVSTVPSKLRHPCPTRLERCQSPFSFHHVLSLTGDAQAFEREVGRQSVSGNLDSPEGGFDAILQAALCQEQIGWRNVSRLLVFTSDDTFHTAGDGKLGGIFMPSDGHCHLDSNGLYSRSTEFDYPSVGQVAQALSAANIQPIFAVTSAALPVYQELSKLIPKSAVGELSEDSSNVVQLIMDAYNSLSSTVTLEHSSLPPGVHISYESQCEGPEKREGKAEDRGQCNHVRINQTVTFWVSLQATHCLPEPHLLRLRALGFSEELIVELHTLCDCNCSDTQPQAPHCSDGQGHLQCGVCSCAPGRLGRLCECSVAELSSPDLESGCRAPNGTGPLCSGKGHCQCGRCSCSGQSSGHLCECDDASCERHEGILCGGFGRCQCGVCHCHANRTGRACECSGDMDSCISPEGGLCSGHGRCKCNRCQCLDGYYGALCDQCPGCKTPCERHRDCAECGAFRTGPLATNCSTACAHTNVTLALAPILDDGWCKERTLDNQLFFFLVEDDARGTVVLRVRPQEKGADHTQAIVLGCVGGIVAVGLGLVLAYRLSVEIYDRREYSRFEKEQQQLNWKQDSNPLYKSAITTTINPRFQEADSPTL

| SMILES | EC50 [1] | EC50 [2] | also measured |
| --- | --- | --- | --- |
| CC[C@@H](Nc1cc(F)c(C(=O)N[C@@H](Cc2ccc(-c3nccc(OC)c3C(F)(F)F)c3ncccc23)C(=O)O)c(F)c1)C(F)(F)F [Example 92, (S)-2-(2,6-difluoro-4-(((R)-1,1,1-trifluorobutan-2-yl)amino)benzamido)-3-(8-(4-methoxy-3-(trifluoromethyl)pyridin-2-yl)quinolin-5-yl)propanoic acid] | 2 nM | – | – |
| COc1cnn(C)c(=O)c1-c1ccc(C[C@H](NC(=O)c2c(F)cc(N[C@H](C)C(F)(F)F)cc2F)C(=O)O)c2cccnc12 [Example 207] | – | 1.7 nM | – |
| CC[C@@H](Nc1cc(F)c(C(=O)N[C@@H](Cc2ccc(-c3c(OC)cc(CN4CCOCC4)cc3OC)c3ncccc23)C(=O)O)c(F)c1)C(F)(F)F [Example 121, (S)-2-(2,6-difluoro-4-(((R)-1,1,1-trifluorobutan-2-yl)amino)benzamido)-3-(8-(2,6-dimethoxy-4-(morpholinomethyl)phenyl)quinolin-5-yl)propanoic acid] | 1.7 nM | – | – |
| COc1c(-c2ccc(C[C@H](NC(=O)c3c(F)cc(N4CCOC[C@H]4C(F)(F)F)cc3F)C(=O)O)c3cccnc23)c(=O)n(C)c2ccccc12 [Example 205] | – | 1.7 nM | – |
| CS(=O)(=O)Cc1cc(F)c(C(=O)N[C@@H](Cc2ccc(-c3ccc(C#N)cc3Cl)c3ncccc23)C(=O)O)c(F)c1 [Example 48, (S)-3-(8-(2-chloro-4-cyanophenyl)quinolin-5-yl)-2-(2,6-difluoro-4-((methylsulfonyl)methyl)benzamido)propanoic acid] | 52.1 nM | – | – |
| Cc1cc(N2CCOC[C@@H]2C(F)(F)F)cc(F)c1C(=O)N[C@@H](Cc1ccc(-c2c(C)nc(C)n(C)c2=O)c2ncccc12)C(=O)O [Example 460] | – | – | EC50 [3]: 0.15 nM |
| Cc1cc(N2CCOC[C@@H]2C(F)(F)F)cc(F)c1C(=O)N[C@@H](Cc1ccc(-n2c(=O)c3c(cnn3C)n(C)c2=O)c2ncccc12)C(=O)O [Example 413] | – | – | EC50 [3]: 0.529 nM |
| COc1cc(Cl)c(Cl)cc1-c1ccc(C[C@H](NC(=O)c2c(F)cccc2F)C(=O)O)c2cccnc12 [Example 5, (S)-3-(8-(4,5-dichloro-2-methoxyphenyl)quinolin-5-yl)-2-(2,6-difluorobenzamido)propanoic acid] | 17.4 nM | – | – |
| N#Cc1ccc(-c2ccc(C[C@H](NC(=O)c3c(F)cc(N[C@@H]4CCCCC4(F)F)cc3F)C(=O)O)c3cccnc23)c(Cl)c1 [Example 170] | – | 93.7 nM | – |
| C[C@@H](NC(=O)c1cc(F)c(C(=O)N[C@@H](Cc2ccc(-c3ccc(C#N)cc3Cl)c3ncccc23)C(=O)O)c(F)c1)C(F)(F)F [Example 154] | – | 44.6 nM | – |
| Cc1nc(-c2ccc(C[C@H](NC(=O)c3c(F)cc(N4CCOC[C@@H]4C(F)(F)F)cc3F)C(=O)O)c3cccnc23)c(=O)n(C)c1C [Example 151] | – | 0.2 nM | – |
| COc1c(F)cccc1-c1ccc(C[C@H](NC(=O)c2c(F)cc(NS(=O)(=O)c3ccc(-c4ccnc(F)c4)cc3)cc2F)C(=O)O)c2cccnc12 [Example 60, (S)-2-(2,6-difluoro-4-((4-(2-fluoropyridin-4-yl)phenyl)sulfonamido)benzamido)-3-(8-(3-fluoro-2-methoxyphenyl)quinolin-5-yl)propanoic acid] | 3 nM | – | – |
| N#Cc1ccc(-c2ccc(C[C@H](NC(=O)c3c(F)cc(C(=O)Nc4ccccc4)cc3F)C(=O)O)c3cccnc23)c(Cl)c1 [Example 26, (S)-3-(8-(2-chloro-4-cyanophenyl)quinolin-5-yl)-2-(2,6-difluoro-4-(phenylcarbamoyl)benzamido)propanoic acid] | 32.8 nM | – | – |
| N#Cc1ccc(-c2ccc(C[C@H](NC(=O)c3c(F)ccc(OC(F)F)c3F)C(=O)O)c3cccnc23)c(Cl)c1 [Example 16, (S)-3-(8-(2-chloro-4-cyanophenyl)quinolin-5-yl)-2-(3-(difluoromethoxy)-2,6-difluorobenzamido)propanoic acid] | 67.4 nM | – | – |
| CC[C@@H](Nc1cc(F)c(C(=O)N[C@@H](Cc2ccc(-c3nc(C)c(C)n(C)c3=O)c3ncccc23)C(=O)O)c(F)c1F)C(F)(F)F [Example 456] | – | – | EC50 [3]: 0.248 nM |
| CCOCc1cc(OC)c(-c2ccc(C[C@H](NC(=O)c3c(F)cccc3F)C(=O)O)c3cccnc23)c(OC)c1 [Example 18, (S)-2-(2,6-difluorobenzamido)-3-(8-(4-(ethoxymethyl)-2,6-dimethoxyphenyl)quinolin-5-yl)propanoic acid] | 9 nM | – | – |
| N#Cc1ccc(-c2ccc(C[C@H](NC(=O)c3c(Cl)cc4[nH]c(C5CC5)cc4c3Cl)C(=O)O)c3cccnc23)c(Cl)c1 [Example 225] | – | 53.7 nM | – |
| COc1cc2c(=O)n(-c3ccc(C[C@H](NC(=O)c4c(F)cc(N5CCOC[C@@H]5C(F)(F)F)cc4F)C(=O)O)c4cccnc34)c(=O)n(C)c2cn1 [Example 428] | – | – | EC50 [3]: 0.18 nM |
| Cc1cc(N2CCOC[C@@H]2C(F)(F)F)cc(F)c1C(=O)N[C@@H](Cc1ccc(-c2c(C(F)(F)F)cc(C)n(C)c2=O)c2ncccc12)C(=O)O (atropisomer, axis not shown) [Example 461] | – | – | EC50 [3]: 0.093 nM |
| C[C@@H](Nc1cc(F)c(C(=O)N[C@@H](Cc2ccc(-c3cn(C)c(=O)n(C)c3=O)c3ncccc23)C(=O)O)c(F)c1)C(F)(F)F [Example 211] | – | 1.9 nM | – |
| CC[C@@]1(C)CN(c2cc(F)c(C(=O)N[C@@H](Cc3ccc(-c4c(C(F)(F)F)cc(C)n(C)c4=O)c4ncccc34)C(=O)O)c(F)c2)CCO1 [Example 445] | – | – | EC50 [3]: 0.984 nM |
| Cc1cc(N2CCOC[C@@H]2C(F)(F)F)cc(F)c1C(=O)N[C@@H](Cc1ccc(-c2c(Cl)cc(C)n(C)c2=O)c2ncccc12)C(=O)O [Example 449] | – | – | EC50 [3]: 0.092 nM |
| Cc1cc(C(F)(F)F)c(-c2ccc(C[C@H](NC(=O)c3c(F)cc(N[C@H](C)C(F)(F)F)cc3F)C(=O)O)c3cccnc23)c(=O)n1C [Example 128, (S)-2-(2,6-difluoro-4-(((R)-1,1,1-trifluoropropan-2-yl)amino)benzamido)-3-(8-(1,6-dimethyl-2-oxo-4-(trifluoromethyl)-1,2-dihydropyridin-3-yl)quinolin-5-yl)propanoic acid] | 0.3 nM | – | – |
| N#Cc1ccc(-c2ccc(C[C@H](NC(=O)c3c(F)cc(CS(=O)(=O)c4ccccc4)cc3F)C(=O)O)c3cccnc23)c(Cl)c1 [Example 49, (S)-3-(8-(2-chloro-4-cyanophenyl)quinolin-5-yl)-2-(2,6-difluoro-4-((phenylsulfonyl)methyl)benzamido)propanoic acid] | 33.7 nM | – | – |
| CC[C@@H](Nc1cc(F)c(C(=O)N[C@@H](Cc2ccc(-c3c(C(F)(F)F)c4ccncc4n(C)c3=O)c3ncccc23)C(=O)O)c(F)c1)C(F)(F)F [Example 111, (S)-2-(2,6-difluoro-4-(((R)-1,1,1-trifluorobutan-2-yl)amino)benzamido)-3-(8-(1-methyl-2-oxo-4-(trifluoromethyl)-1,2-dihydro-1,7-naphthyridin-3-yl)quinolin-5-yl)propanoic acid] | 0.1 nM | – | – |
| O=C(N[C@@H](Cc1ccc(-c2ccc(C(F)(F)F)cn2)c2ncccc12)C(=O)O)c1c(F)cc(NS(=O)(=O)c2ccc(-c3ccnc(F)c3)cc2)cc1F [Example 57, (S)-2-(2,6-difluoro-4-((4-(2-fluoropyridin-4-yl)phenyl)sulfonamido)benzamido)-3-(8-(5-(trifluoromethyl)pyridin-2-yl)quinolin-5-yl)propanoic acid] | 30 nM | – | – |
| N#Cc1ccc(-c2ccc(C[C@H](NC(=O)c3c(F)cc(N[C@H](c4ccccc4)C(F)(F)F)cc3F)C(=O)O)c3cccnc23)c(Cl)c1 [Example 86, (S)-3-(8-(2-chloro-4-cyanophenyl)quinolin-5-yl)-2-(2,6-difluoro-4-(((R)-2,2,2-trifluoro-1-phenylethyl)amino)benzamido)propanoic acid] | 8.3 nM | – | – |
| Cc1cnc(-c2c(F)cc(C[C@H](NC(=O)c3c(C)cc(N4CCOC[C@@H]4C(F)(F)F)cc3F)C(=O)O)c3cccnc23)nc1C [Example 465] | – | – | EC50 [3]: 1.53 nM |
| CC[C@@H](Nc1cc(F)c(C(=O)N[C@@H](Cc2ccc(-c3nc(C)c(C)n(C)c3=O)c3ncccc23)C(=O)O)c(F)c1)C(F)(F)F [Example 117, (S)-2-(2,6-difluoro-4-(((R)-1,1,1-trifluorobutan-2-yl)amino)benzamido)-3-(8-(4,5,6-trimethyl-3-oxo-3,4-dihydropyrazin-2-yl)quinolin-5-yl)propanoic acid] | 0.7 nM | – | – |

Second part, led by results:

| EC50 [1] | EC50 [2] | SMILES | also measured |
| --- | --- | --- | --- |
| – | 26.8 nM | O=C(N[C@@H](Cc1ccc(-c2c(Cl)cc(F)cc2Cl)c2ncccc12)C(=O)O)c1c(F)cc(N[C@H](c2ccccc2)C(F)(F)F)cc1F [Example 282] | – |
| – | 2.8 nM | Cc1c(N(C)C)cn(C)c(=O)c1-c1ccc(C[C@H](NC(=O)c2c(F)cc(N3CCOC[C@@H]3C(F)(F)F)cc2F)C(=O)O)c2cccnc12 [Example 242] | – |
| – | 79.2 nM | N#Cc1ccc(-c2ccc(C[C@H](NC(=O)c3c(Cl)cc4[nH]c(Cc5ccccc5)cc4c3Cl)C(=O)O)c3cccnc23)c(Cl)c1 [Example 240] | – |
| – | 6.9 nM | COc1ccc(C)nc1-c1ccc(C[C@H](NC(=O)c2c(F)cc(N3CCOC[C@H]3C(F)(F)F)cc2F)C(=O)O)c2cccnc12 [Example 291] | – |
| – | 4.5 nM | CCC(CC)Nc1cc(F)c(C(=O)N[C@@H](Cc2ccc(-c3c(C(F)(F)F)cc(C)n(C)c3=O)c3ncccc23)C(=O)O)c(F)c1 [Example 272] | – |
| – | 77 nM | N#Cc1ccc(-c2ccc(C[C@H](NC(=O)c3c(F)cc(C(=O)N[C@H]4C[C@@H](O)C4)cc3F)C(=O)O)c3cccnc23)c(Cl)c1 [Example 267] | – |
| – | 77.9 nM | O=C(N[C@@H](Cc1ccc(NC(=O)c2c(Cl)cccc2Cl)c2ncccc12)C(=O)O)c1c(F)cccc1F [Example 239] | – |
| – | 1.1 nM | Cc1c(-c2ccc(C[C@H](NC(=O)c3c(F)cc(N4CCS(=O)(=O)[C@@H](C)C4)cc3F)C(=O)O)c3cccnc23)c(=O)n(C)c(=O)n1C [Example 226] | – |
| – | 3.4 nM | Cc1nc(-c2ccc(C[C@H](NC(=O)c3c(F)cc(N4CCOC[C@H]4C(F)(F)F)cc3F)C(=O)O)c3cccnc23)c(=O)n(C)c1C [Example 255] | – |
| – | 20.1 nM | CCOCc1cc(OC)c(-c2ccc(C[C@H](NC(=O)c3c(F)cc(NC(C)=O)cc3F)C(=O)O)c3cccnc23)c(OC)c1 [Example 329] | – |
| – | 14.3 nM | Cc1nc(-c2ccc(C[C@H](NC(=O)c3c(F)cccc3F)C(=O)O)c3cccnc23)c(C(F)(F)F)c2ccccc12 [Example 318] | – |
